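Compound exposure: 48 hours, 5 concentrations, 96-well plates. TGI: total growth inhibition.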
Tests used:
Experiment in all cases: NCI-60 cell line screen, 48 h
OVCAR-4 ovarian = system: OVCAR-4 ovarian
MDA-MB-435 = system: MDA-MB-435
SR leukemia = system: SR leukemia
HCT-116 colon = system: HCT-116 colon
HL-60(TB) leukemia = system: HL-60(TB) leukemia
SK-MEL-5 melanoma = system: SK-MEL-5 melanoma
IGROV1 ovarian = system: IGROV1 ovarian
EKVX NSCLC = system: EKVX NSCLC
MDA-MB-231 breast = system: MDA-MB-231 breast
TK-10 renal = system: TK-10 renal
OVCAR-5 ovarian = system: OVCAR-5 ovarian
NCI-H23 lung = system: NCI-H23 lung
MDA-N = system: MDA-N
HCC-2998 colon = system: HCC-2998 colon
SNB-19 CNS = system: SNB-19 CNS
SK-MEL-28 melanoma = system: SK-MEL-28 melanoma
U251 CNS = system: U251 CNS
A498 renal = system: A498 renal
NCI-H226 lung = system: NCI-H226 lung
K-562 leukemia = system: K-562 leukemia
T-47D breast = system: T-47D breast
NCI-H522 lung = system: NCI-H522 lung
SK-MEL-2 melanoma = system: SK-MEL-2 melanoma
KM12 colon = system: KM12 colon
SF-295 CNS = system: SF-295 CNS
A549 NSCLC = system: A549 NSCLC
NCI-H460 lung = system: NCI-H460 lung
CAKI-1 renal = system: CAKI-1 renal
MOLT-4 leukemia = system: MOLT-4 leukemia
UO-31 renal = system: UO-31 renal
HS 578T breast = system: HS 578T breast
RPMI-8226 leukemia = system: RPMI-8226 leukemia
OVCAR-8 ovarian = system: OVCAR-8 ovarian
SF-539 CNS = system: SF-539 CNS
HT29 colon = system: HT29 colon
SN12C renal = system: SN12C renal
LOX IMVI melanoma = system: LOX IMVI melanoma
SW-620 colon = system: SW-620 colon
PC-3 prostate = system: PC-3 prostate
RXF 393 renal = system: RXF 393 renal
SNB-75 CNS = system: SNB-75 CNS
786-0 renal = system: 786-0 renal
SF-268 CNS = system: SF-268 CNS
UACC-62 melanoma = system: UACC-62 melanoma
HCT-15 colon = system: HCT-15 colon
DU-145 prostate = system: DU-145 prostate
COLO 205 colon = system: COLO 205 colon
HOP-62 NSCLC = system: HOP-62 NSCLC
ACHN renal = system: ACHN renal
MALME-3M melanoma = system: MALME-3M melanoma
UACC-257 melanoma = system: UACC-257 melanoma
NCI/ADR-RES ovarian = system: NCI/ADR-RES ovarian
CCRF-CEM leukemia = system: CCRF-CEM leukemia
SK-OV-3 ovarian = system: SK-OV-3 ovarian
OVCAR-3 ovarian = system: OVCAR-3 ovarian
M14 melanoma = system: M14 melanoma
BT-549 breast = system: BT-549 breast
HOP-92 NSCLC = system: HOP-92 NSCLC
MCF7 breast = system: MCF7 breast

Measured: TGI

O=C(c1ccccc1)N1C(=S)N=C(Nc2ccccc2)C1=Nc1ccccc1
> 100 µM: OVCAR-4 ovarian | MDA-MB-435 | SR leukemia | HCT-116 colon | HL-60(TB) leukemia | SK-MEL-5 melanoma | IGROV1 ovarian | EKVX NSCLC | MDA-MB-231 breast | TK-10 renal | OVCAR-5 ovarian | NCI-H23 lung | MDA-N | HCC-2998 colon | SNB-19 CNS | SK-MEL-28 melanoma | U251 CNS | A498 renal | NCI-H226 lung | K-562 leukemia | T-47D breast | NCI-H522 lung | SK-MEL-2 melanoma | KM12 colon | SF-295 CNS | A549 NSCLC | NCI-H460 lung | CAKI-1 renal | MOLT-4 leukemia | UO-31 renal | HS 578T breast | RPMI-8226 leukemia | OVCAR-8 ovarian | SF-539 CNS | HT29 colon | SN12C renal | LOX IMVI melanoma | SW-620 colon | PC-3 prostate | RXF 393 renal | SNB-75 CNS | 786-0 renal | SF-268 CNS | UACC-62 melanoma | HCT-15 colon | DU-145 prostate | COLO 205 colon | HOP-62 NSCLC | ACHN renal | MALME-3M melanoma | UACC-257 melanoma | NCI/ADR-RES ovarian | CCRF-CEM leukemia | SK-OV-3 ovarian

c1ccc(-c2cnc(-c3ccc(-c4ncc(-c5ccccc5)o4)cc3)o2)cc1
> 100 µM: OVCAR-3 ovarian | OVCAR-4 ovarian | M14 melanoma | MDA-MB-435 | HCT-116 colon | HL-60(TB) leukemia | SK-MEL-5 melanoma | IGROV1 ovarian | EKVX NSCLC | MDA-MB-231 breast | TK-10 renal | OVCAR-5 ovarian | NCI-H23 lung | MDA-N | HCC-2998 colon | SNB-19 CNS | SK-MEL-28 melanoma | U251 CNS | A498 renal | NCI-H226 lung | K-562 leukemia | T-47D breast | NCI-H522 lung | KM12 colon | SF-295 CNS | A549 NSCLC | NCI-H460 lung | MOLT-4 leukemia | UO-31 renal | HS 578T breast | RPMI-8226 leukemia | OVCAR-8 ovarian | HT29 colon | SN12C renal | BT-549 breast | LOX IMVI melanoma | HOP-92 NSCLC | SW-620 colon | PC-3 prostate | RXF 393 renal | SNB-75 CNS | 786-0 renal | SF-268 CNS | UACC-62 melanoma | HCT-15 colon | DU-145 prostate | COLO 205 colon | HOP-62 NSCLC | MCF7 breast | ACHN renal | MALME-3M melanoma | UACC-257 melanoma | NCI/ADR-RES ovarian | CCRF-CEM leukemia | SK-OV-3 ovarian

Reference: PubChem BioAssay (NCI)
